Earlier results in paper PMC8617627, “Novel DYRK1A Inhibitor Rescues Learning and Memory Deficits in a Mouse Model of Down Syndrome” (Pharmaceuticals, 2021).
Read-outs that look alike come from different tables or passages of the source.

System: 139-protein kinase panel
Details: no reference given, cited from earlier work

SMILES | GINI-index (comparison value for harmine) | GINI-index (comparison value for staurosporine, with 10 uM ATP)
COc1ccc2c(c1)[nH]c1c(C)nccc12 [harmine] | 0.506 | 
CN[C@@H]1C[C@H]2O[C@@](C)([C@@H]1OC)n1c3ccccc3c3c4c(c5c6ccccc6n2c5c31)C(=O)NC4 [staurosporine] |  | 0.093
